Test system: HCV 1b_Huh-Luc/Neo-ET cell line persistently expressing a bicistronic genotype 1b replicon in Huh 7 cells
Assay: HCV replicon assay (luciferase readout, 72 h)
Type: cell-based, HCV genotype 1b
Conditions: Hepatitis C virus, Huh-7, 72 h, read-out: Inhibition of HCV genotype 1b
Experimental: Biological activity of the compounds of the invention was determined using an HCV replicon assay. The HCV 1b_Huh-Luc/Neo-ET cell line persistently expressing a bicistronic genotype 1b replicon in Huh 7 cells was obtained from ReBLikon GMBH. This cell line was used to test compound inhibition using luciferase enzyme activity readout as a measurement of compound inhibition of replicon levels.
On Day 1 (the day after plating), each compound is added in triplicate to the cells. Plates incubated for 72 h prior to running the luciferase assay. Enzyme activity was measured using a Bright-Glo Kit (cat. number E2620) manufactured by Promega Corporation. The following equation was used to generate a percent control value for each compound.
% Control=(Average Compound Value/Average Control)*100
The EC50 value was determined using GraphPad Prism and the following equation:
Y=Bottom+(Top-Bottom)/(1+10̂((LogIC50−X)*HillSlope))
EC50 values of compounds are determined several times in the replicon assay.
Example compounds of the disclosed invention are illustrated in Tables 1-16 attached as appendices. The tables show inhibitory activity of many of the example compounds with respect to HCV 1b. […] The tables further provide mass spectrometry results for the synthesized example compounds.

| SMILES | EC50 |
| --- | --- |
| C[C@H](NC(=O)[C@@H]1CCCN1C(=O)[C@H](NC(=O)C1CC1)c1ccccc1)c1ccc(C#Cc2cnc([C@@H]3CCCN3C(=O)[C@H](NC(=O)C3CC3)c3ccccc3)[nH]2)cc1 [Compound 132] | 10 to 999 nM |
| CN(C)[C@@H](C(=O)N1CCC[C@H]1c1ncc(C#Cc2ccc(-c3cnc([C@@H]4CCCN4C(=O)[C@H](NC(=O)C4CC4)c4ccccc4)[nH]3)cc2)[nH]1)c1ccccc1 [Compound 133] | < 1 nM |
| COC(=O)N[C@H](C(=O)N1CCC[C@H]1c1ncc(C#Cc2ccc(-c3cnc([C@@H]4CCCN4C(=O)[C@@H](NC(=O)OC)C(C)C)[nH]3)cc2)[nH]1)C(C)C [Compound 134] | < 1 nM |
| C[C@@H](NC(=O)[C@@H]1CCCN1C(=O)[C@H](NC(=O)C1CC1)c1ccccc1)c1ccc(C#Cc2cnc([C@@H]3CCCN3C(=O)[C@H](NC(=O)C3CC3)c3ccccc3)[nH]2)cc1 [Compound 135] | > 1000 nM |
| C[C@@H](NC(=O)OC(C)(C)C)C(=O)N1CCC[C@H]1c1ncc(-c2ccc(C#Cc3ccc(-c4cnc([C@@H]5CCCN5C(=O)[C@@H](C)NC(=O)OC(C)(C)C)[nH]4)cc3)cc2)[nH]1 [Compound 151] | 10 to 999 nM |
| CC(C)[C@@H](NC(=O)OC(C)(C)C)C(=O)N1CCC[C@H]1c1ncc(-c2ccc(C#Cc3ccc(-c4cnc([C@@H]5CCCN5C(=O)[C@H](NC(=O)OC(C)(C)C)C(C)C)[nH]4)cc3)cc2)[nH]1 [Compound 152] | 10 to 999 nM |
| O=C(N[C@@H](C(=O)N1CCC[C@H]1c1ncc(-c2ccc(C#Cc3ccc(-c4cnc([C@@H]5CCCN5C(=O)[C@H](NC(=O)C5CC5)c5ccccc5)[nH]4)cc3)cc2)[nH]1)c1ccccc1)C1CC1 [Compound 153] | < 1 nM |
| C[C@@H](NC(=O)C1CC1)C(=O)N1CCC[C@H]1c1ncc(-c2ccc(C#Cc3ccc(-c4cnc([C@@H]5CCCN5C(=O)[C@@H](C)NC(=O)C5CC5)[nH]4)cc3)cc2)[nH]1 [Compound 154] | 1 to 9.9 nM |
| CC(C)[C@@H](NC(=O)C1CC1)C(=O)N1CCC[C@H]1c1ncc(-c2ccc(C#Cc3ccc(-c4cnc([C@@H]5CCCN5C(=O)[C@H](NC(=O)C5CC5)C(C)C)[nH]4)cc3)cc2)[nH]1 [Compound 155] | 1 to 9.9 nM |
| COC(=O)N[C@@H](C(=O)N1CCC[C@H]1c1ncc(-c2ccc(C#Cc3ccc(-c4cnc([C@@H]5CCCN5C(=O)[C@H](NC(=O)OC)c5ccccc5)[nH]4)cc3)cc2)[nH]1)c1ccccc1 [Compound 156] | < 1 nM |
| O=C([C@H](O)c1ccccc1)N1CCC[C@H]1c1ncc(-c2ccc(C#Cc3ccc(-c4cnc([C@@H]5CCCN5C(=O)[C@H](O)c5ccccc5)[nH]4)cc3)cc2)[nH]1 [Compound 157] | < 1 nM |
| CC(=O)N[C@@H](C(=O)N1CCC[C@H]1c1ncc(-c2ccc(C#Cc3ccc(-c4cnc([C@@H]5CCCN5C(=O)[C@H](NC(C)=O)c5ccccc5)[nH]4)cc3)cc2)[nH]1)c1ccccc1 [Compound 158] | < 1 nM |
| CN1CCN(C(=O)N[C@@H](C(=O)N2CCC[C@H]2c2ncc(-c3ccc(C#Cc4ccc(-c5cnc([C@@H]6CCCN6C(=O)[C@H](NC(=O)N6CCN(C)CC6)c6ccccc6)[nH]5)cc4)cc3)[nH]2)c2ccccc2)CC1 [Compound 159] | < 1 nM |
| CN(C)[C@@H](C(=O)N1CCC[C@H]1c1ncc(-c2ccc(C#Cc3ccc(-c4cnc([C@@H]5CCCN5C(=O)[C@@H](c5ccccc5)N(C)C)[nH]4)cc3)cc2)[nH]1)c1ccccc1 [Compound 160] | < 1 nM |
| CN(C)C(=O)N[C@@H](C(=O)N1CCC[C@H]1c1ncc(-c2ccc(C#Cc3ccc(-c4cnc([C@@H]5CCCN5C(=O)[C@H](NC(=O)N(C)C)c5ccccc5)[nH]4)cc3)cc2)[nH]1)c1ccccc1 [Compound 161] | < 1 nM |
| CNC(=O)N[C@@H](C(=O)N1CCC[C@H]1c1ncc(-c2ccc(C#Cc3ccc(-c4cnc([C@@H]5CCCN5C(=O)[C@H](NC(=O)NC)c5ccccc5)[nH]4)cc3)cc2)[nH]1)c1ccccc1 [Compound 162] | < 1 nM |

| SMILES | EC50 |
| --- | --- |
| CC(C)[C@H](NC(=O)OC(C)(C)C)C(=O)N1CCC[C@H]1c1ncc(-c2ccc(C#Cc3ccc(-c4cnc([C@@H]5CCCN5C(=O)[C@@H](NC(=O)OC(C)(C)C)C(C)C)[nH]4)cc3)cc2)[nH]1 [Compound 165] | 10 to 999 nM |
| O=C(N[C@@H](C(=O)N1CCC[C@H]1C(=O)Nc1ccc(C#Cc2ccc(-c3cnc([C@@H]4CCCN4C(=O)[C@H](NC(=O)C4CC4)c4ccccc4)[nH]3)cc2)cc1)c1ccccc1)C1CC1 [Compound 166] | < 1 nM |
| C[C@@H](NC(=O)[C@@H]1CCCN1C(=O)[C@H](NC(=O)OC(C)(C)C)c1ccccc1)c1ccc(C#Cc2ccc(-c3cnc([C@@H]4CCCN4C(=O)[C@H](NC(=O)OC(C)(C)C)c4ccccc4)[nH]3)cc2)cc1 [Compound 167] | 1 to 9.9 nM |
| C[C@@H](NC(=O)[C@@H]1CCCN1C(=O)[C@H](NC(=O)C1CC1)c1ccccc1)c1ccc(C#Cc2ccc(-c3cnc([C@@H]4CCCN4C(=O)[C@H](NC(=O)C4CC4)c4ccccc4)[nH]3)cc2)cc1 [Compound 168] | < 1 nM |
| C[C@H](NC(=O)[C@@H]1CCCN1C(=O)[C@H](NC(=O)OC(C)(C)C)c1ccccc1)c1ccc(C#Cc2ccc(-c3cnc([C@@H]4CCCN4C(=O)[C@H](NC(=O)OC(C)(C)C)c4ccccc4)[nH]3)cc2)cc1 [Compound 169] | 1 to 9.9 nM |
| CC(C)[C@H](NC(=O)C1CC1)C(=O)N1CCC[C@H]1c1ncc(-c2ccc(C#Cc3ccc(-c4cnc([C@@H]5CCCN5C(=O)[C@@H](NC(=O)C5CC5)C(C)C)[nH]4)cc3)cc2)[nH]1 [Compound 170] | 1 to 9.9 nM |
| COC(=O)N[C@@H](C(=O)N1CCC[C@H]1C(=O)Nc1ccc(C#Cc2ccc(-c3cnc([C@@H]4CCCN4C(=O)[C@H](NC(=O)OC)c4ccccc4)[nH]3)cc2)cc1)c1ccccc1 [Compound 171] | < 1 nM |
| CO[C@@H](C(=O)N1CCC[C@H]1c1ncc(-c2ccc(C#Cc3ccc(-c4cnc([C@@H]5CCCN5C(=O)[C@H](OC)c5ccccc5)[nH]4)cc3)cc2)[nH]1)c1ccccc1 [Compound 172] | < 1 nM |
| CCN(CC)[C@@H](C(=O)N1CCC[C@H]1c1ncc(-c2ccc(C#Cc3ccc(-c4cnc([C@@H]5CCCN5C(=O)[C@@H](c5ccccc5)N(CC)CC)[nH]4)cc3)cc2)[nH]1)c1ccccc1 [Compound 173] | < 1 nM |
| COC(=O)N[C@@H](C(=O)N1CCC[C@H]1c1ncc(-c2ccc(C#Cc3ccc(-c4cnc([C@@H]5CCCN5C(=O)[C@@H](c5ccccc5)N(C)C)[nH]4)cc3)cc2)[nH]1)c1ccccc1 [Compound 174] | < 1 nM |
| CCN(CC)[C@@H](C(=O)N1CCC[C@H]1c1ncc(-c2ccc(C#Cc3ccc(-c4cnc([C@@H]5CCCN5C(=O)[C@H](NC(=O)OC)c5ccccc5)[nH]4)cc3)cc2)[nH]1)c1ccccc1 [Compound 175] | < 1 nM |
| COC(=O)N[C@@H](C(=O)N1CCC[C@H]1c1ncc(-c2ccc(C#Cc3ccc(-c4cnc([C@@H]5CCCN5C(=O)c5nccn5C)[nH]4)cc3)cc2)[nH]1)c1ccccc1 [Compound 176] | < 1 nM |
| COC(=O)N[C@@H](C(=O)N1CCC[C@H]1c1ncc(-c2ccc(C#Cc3ccc(-c4cnc([C@@H]5CCCN5C(=O)[C@H]5CCCO5)[nH]4)cc3)cc2)[nH]1)c1ccccc1 [Compound 177] | < 1 nM |
| COC(=O)N[C@@H](C(=O)N1CCC[C@H]1c1ncc(-c2ccc(C#Cc3ccc(-c4cnc([C@@H]5CCCN5C(=O)[C@@H](c5ccccc5)N5CCCC5)[nH]4)cc3)cc2)[nH]1)c1ccccc1 [Compound 178] | < 1 nM |
| COC(=O)N[C@@H](C(=O)N1CCC[C@H]1c1ncc(-c2ccc(C#Cc3ccc(-c4cnc([C@@H]5CCCN5C(=O)[C@H](OC)c5ccccc5)[nH]4)cc3)cc2)[nH]1)c1ccccc1 [Compound 179] | < 1 nM |
